Test results as given in PubChem BioAssay (NCI).
Where “and” joins values, the source holds several entries; their conditions need not be identical. Equal values may be shown once.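 Dose response: 5 concentrations. Exposure: 48 h. Format: 96-well plates. Endpoint: linear interpolation; highest concentration if not reached. GI50 = concentration required for 50% inhibition of growth. TGI denotes the concentration required for complete inhibition of growth.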

Key:
Experiment in all cases: DTP human tumour cell line panel, 48 h
HCT-15 colon = test system: HCT-15 colon
HS 578T breast = test system: HS 578T breast
BT-549 breast = test system: BT-549 breast
SK-MEL-5 melanoma = test system: SK-MEL-5 melanoma
DU-145 prostate = test system: DU-145 prostate
COLO 205 colon = test system: COLO 205 colon
SF-295 CNS = test system: SF-295 CNS
OVCAR-8 ovarian = test system: OVCAR-8 ovarian
HOP-62 NSCLC = test system: HOP-62 NSCLC
CAKI-1 renal = test system: CAKI-1 renal

Row | SMILES | GI50 (HCT-15 colon) [µM] | TGI (HCT-15 colon) | GI50 (HS 578T breast) [µM] | TGI (HS 578T breast) [µM] | GI50 (BT-549 breast) [µM] | TGI (BT-549 breast) [µM] | GI50 (SK-MEL-5 melanoma) [µM] | TGI (SK-MEL-5 melanoma) | GI50 (DU-145 prostate) [µM] | TGI (DU-145 prostate) [µM] | GI50 (COLO 205 colon) [µM] | TGI (COLO 205 colon) | GI50 (SF-295 CNS) [µM] | TGI (SF-295 CNS) [µM] | GI50 (OVCAR-8 ovarian) [µM] | TGI (OVCAR-8 ovarian) | TGI (HOP-62 NSCLC) [µM] | TGI (CAKI-1 renal) [µM] | GI50 (HOP-62 NSCLC) [µM] | GI50 (CAKI-1 renal) [µM]
1 | Clc1nc(Cl)c2ncn(-c3ccccc3)c2n1 | 3.42 | 16 µM | 7.13 | 64.9 | 15.9 | 29.5 | 10.4 | 22.3 µM | 1.44 | 2.96 | 3.4 | 13.5 µM | 10.3 | 23 | 4.4 | 19 µM |  |  |  | 
2 | CC(=O)OC1C(O)C(C)OC(OC2C(OC(=O)C3CCC4C(C3)OC3(CC(OC(=O)/C=C/c5ccccc5)C(C)CO3)C43CO3)OC(C)C(O)C2OC(C)=O)C1O (stereo unspecified) |  | 1.82 µM |  | 0.00669 |  | 0.0147 |  | 0.0155 µM |  | 0.0714 |  | 0.0181 µM |  | 0.145 |  | 0.198 µM | 0.0519 | 1.21 |  | 
3 | Cc1[nH]c(=O)n2c(C)nnc2c1C(=O)O |  | > 100 µM |  |  |  |  |  |  |  |  |  | > 100 µM |  | > 100 |  | > 100 µM | > 100 | > 100 |  | 
4 | CC1=C2CC[C@@]3(C)C(=CCC3O)C2(C)CCC1=O (stereo partly specified) |  | > 100 µM |  |  |  |  |  | > 100 µM |  |  |  | > 100 µM |  | > 100 |  | > 100 µM | > 100 | > 100 |  | 
5 | c1cc2c(cc1C1OCC3C(c4ccc5c(c4)OCO5)OCC13)OCO2 (stereo unspecified) |  | > 100 µM |  |  |  |  |  | 83.7 µM |  |  |  | > 100 µM |  | > 100 |  | > 100 µM | > 100 |  |  | 
6 | CC[O-].CC[O-].O=C1C=C([O-])C(=O)c2ccccc21.O=C1C=C([O-])C(=O)c2ccccc21.[Ti+4] | 60.6 | > 100 µM |  |  |  |  | 3.07 | 55.9 µM |  |  | 24 | > 59.8 µM |  | > 100 | > 100 | > 100 µM | > 100 | > 100 | > 100 | > 100
7 | c1ccc2cc(C3NCCc4[nH]cnc43)ccc2c1 (stereo unspecified) |  | > 100 µM |  |  |  |  |  | 45.3 µM |  |  |  | 62.5 µM |  | > 100 |  | > 100 µM | > 100 | > 100 |  | 
8 | CSC1=CC(=O)c2ccccc2C1=O | 11.6 | 26.1 µM |  |  | 11.6 | 23.8 | 5.74 | 19 µM | 10.8 | 23.6 | 1.99 | 3.65 µM | 15.4 | 31.5 | 3.58 | 15 µM | 31.8 | 3.11 | 16.7 | 1.59
9 | CC(=O)OC(C(=O)[O][Ge]([CH3])([CH3])[CH3])c1ccccc1 (stereo unspecified) | > 100 | > 100 µM |  |  |  |  | > 100 | > 100 µM |  |  | > 100 | > 100 µM | > 100 | > 100 | > 100 | > 100 µM | > 100 | > 100 | > 100 | > 100
10 | CCOC(=O)CCc1c(C)c2c(OC)cc(OC)cc2oc1=O |  |  |  |  |  |  |  |  |  |  |  | > 100 µM |  | > 100 |  | > 100 µM | > 100 | > 100 |  | 
11 | CC1(C)N=C(N)N=C(N)N1c1ccc(OCC(=O)Nc2ccc(S(=O)(=O)F)cc2Cl)c(Cl)c1 | 4.15 | > 100 µM |  |  | 58.4 | > 100 | 1.15 | > 100 µM | 5.69 | > 100 | 21.1 | > 100 µM | 5.23 | > 100 | 7.79 | > 100 µM | > 100 |  | 7.81 | 
12 | C/C=C1\Oc2ccc(OC)cc2S1(=O)=O |  | > 100 µM |  |  |  |  |  | > 100 µM |  |  |  | > 100 µM |  | > 100 |  | > 100 µM | > 100 | > 100 |  | 
13 | CCCCCOC(=O)Nc1nc(=O)n(C2OC(C)C(O)C2O)cc1F (stereo unspecified) | > 10000 | > 10000 µM |  |  |  |  | 338 | > 10000 µM |  |  |  |  | > 10000 | > 10000 | > 10000 | > 10000 µM | > 10000 | > 10000 | > 10000 | > 10000
14 | Cc1ccc2ncnc(N(C)C3CCCCC3)c2c1 | 27 | 88.7 µM | > 100 | > 100 |  |  | > 100 | > 100 µM | 33.9 | > 100 | 35.1 | > 100 µM | 18.9 | 46.9 | 14.6 | 63.8 µM | > 100 | 39 | 28.7 | 13.9
15 | CCCCCCCCCCCCC(O)C1CCC(C(O)CCCCC(O)CCCCCC2CC(CC(C)=O)C(=O)O2)O1 (stereo unspecified) | 2.56 | 5.23 µM and 17.9 µM |  | 3.8 |  | 5.6 | 0.112 | 2.11 µM and 5.09 µM |  |  | 1.37 | 2.65 µM and 11.7 µM | 0.508 | 13.5 | 1.38 | 3.48 µM and 20.9 µM | 19.1 | 22.3 | 2.74 | 2.29
16 | CC(=O)OC(COc1ccc2c(c1)[n+]([O-])nc(N)[n+]2[O-])CN1CCCCC1 (stereo unspecified) |  | 31.6 µM |  |  |  | > 100 |  | 14.6 µM |  | 54.9 |  | 30.5 µM |  |  |  | 41 µM |  | > 100 |  | 
17 | c1cc[n+](Cc2c3ccccc3cc3c2ccc2ccccc23)cc1 | > 100 | > 100 µM | 1.96 | 8.65 | 1.73 | 4.6 | 1.77 | 3.89 µM | 6.45 | 20.4 | 1.88 | 5.24 µM | 3.42 | 23.2 | 3.49 | 16.1 µM | 11.7 |  | 2.41 | 
18 | COc1ccc(OC(=O)N2C/C(=C\c3ccccc3)C(=O)/C(=C/c3ccccc3)C2)cc1 |  | 9.23 µM |  | 7.33 |  | 4.67 |  | 8.84 µM |  | 65.1 |  | 15.7 µM |  | 10.1 |  | 7.57 µM | 21.4 |  |  | 
19 | O=C(c1ccccc1)n1cc(/C=C/[N+](=O)[O-])c2ccccc21 |  | 39.8 µM |  |  |  |  |  | > 100 µM |  |  |  | 59.2 µM |  | > 100 |  | > 100 µM | > 100 | > 100 |  | 
20 | CCCCCCCCCCCCCCCC(=O)NS(=O)(=O)OC[C@H]1O[C@@H](n2cnc3c(N)ncnc32)[C@H](O)[C@@H]1O | < 0.0424 | 2.11 µM | 0.982 | 6.04 |  |  | 0.234 | 0.571 µM | < 0.0462 | 3.98 | < 0.0157 | < 0.0238 µM | 1.01 | 2.31 | 0.3 | 1.28 µM |  |  | < 0.0198 | 
21 | O=c1cccccc1[O-].O=c1cccccc1[O-].O=c1cccccc1[O-].[Nd+3] |  | > 100 µM |  |  |  |  |  | > 100 µM |  |  |  |  |  | > 100 |  | 90.7 µM | 95.3 | > 100 | 32 | 
22 | C[n+]1cccc(NC(=O)c2ccc3ccc4ccc(C(=O)Nc5ccc[n+](C)c5)nc4c3n2)c1 | 3.37 | > 100 µM | 4.51 | > 68.6 | 24 | > 100 |  |  | 0.376 | 15.6 | 4.35 | > 100 µM | 2.59 | 25.3 | 9.02 | > 100 µM | 97.5 | > 100 | 1.83 | 4.93
23 | COC(=O)c1cc(O)ccc1O |  | > 100 µM |  |  |  |  |  | > 100 µM |  |  |  | > 100 µM |  | > 100 |  | > 100 µM | > 100 | > 100 |  | 
24 | COC(=O)C1c2cc3c(c(O)c2CCC1(C)O)C(=O)c1c(O)cc2c(c1C3=O)OC1OC2(C)C(O)C(N(C)C)C1O (stereo unspecified) |  | 1.7 µM |  | 3.77 |  |  |  | 1.73 µM |  | 0.561 |  | 1.73 µM |  | 1.87 |  | 0.591 µM | 1.58 |  |  | 
25 | CNC(=O)/C=C/C1=CN2C(=O)c3ccc(C)c(O)c3NC(OC)C2C1 (stereo unspecified) |  | 4.48 µM |  | < 0.0264 |  |  |  | 0.186 µM |  | < 0.01 |  | < 0.0202 µM |  | 1.07 |  | 0.192 µM | 0.328 | 2.63 |  | 
26 | OC1CC(O)O[C@H](c2ccccc2)C1 (stereo partly specified) |  | > 100 µM |  |  |  |  |  | > 100 µM |  |  |  | > 100 µM |  | > 100 |  | > 100 µM | > 100 | > 100 |  | 
27 | Cc1ccccc1N(CCC#N)C1=NN(C(=O)CC(=O)Nc2ccc(Cl)cc2)C(c2ccccc2)C1 (stereo unspecified) |  | > 100 µM |  |  |  |  |  | > 100 µM |  |  |  | > 100 µM |  | > 100 |  | > 100 µM | > 100 |  |  | 
28 | CCCCCCCCCN=C(N)c1ccc(N2CCN(c3ccc(C(N)=NCCCCCCCCC)cc3)CC2)cc1 | 2.05 | 13.5 µM |  |  | 1.13 | 2.71 |  |  | 2.35 | 8.06 | 1.78 | 7.94 µM | 1.24 | 2.57 | 1.62 | 5.95 µM | > 50 | 8.42 | 2.72 | 1.86
29 | CC1(C)CC[C@]23CC[C@]4(C)[C@H](CC[C@@H]5[C@@]6(C)CCCNC(C)(C)[C@@H]6CC[C@]54C)[C@H]2[C@H]1OC3 | 1.31 | 2.68 µM | 1.96 | 4.69 |  |  | 1.69 | 3.06 µM | 1.74 | 3.23 | 1.28 | 2.68 µM | 1.7 | 3.19 |  |  | 3.75 | 2.97 | 1.91 | 1.62
